Results published in US20100222344A1, “4-ANILINO-SUBSTITUTED QUINAZOLINE DERIVATIVES AS TYROSINE KINASE INHIBITORS” (AstraZeneca AB, priority 2005, published 2010).

Columns and labels:
[1] = target: T1, EGFR tyrosine kinase (Homo sapiens, UniProt P00533); assay: Test (a) protein tyrosine kinase phosphorylation assay, EGFR; type: biochemical; conditions: read-out: IC50 Test (a): Inhibition of EGFR tyrosine kinase protein phosphorylation
T1 construct: Recombinant intracellular fragments of EGFR, erbB2 and erbB4; made in house; host or cells: baculovirus/Sf21 insect cells (cleared lysate used)
T1 sequence (P00533 669-1210 limits assumed): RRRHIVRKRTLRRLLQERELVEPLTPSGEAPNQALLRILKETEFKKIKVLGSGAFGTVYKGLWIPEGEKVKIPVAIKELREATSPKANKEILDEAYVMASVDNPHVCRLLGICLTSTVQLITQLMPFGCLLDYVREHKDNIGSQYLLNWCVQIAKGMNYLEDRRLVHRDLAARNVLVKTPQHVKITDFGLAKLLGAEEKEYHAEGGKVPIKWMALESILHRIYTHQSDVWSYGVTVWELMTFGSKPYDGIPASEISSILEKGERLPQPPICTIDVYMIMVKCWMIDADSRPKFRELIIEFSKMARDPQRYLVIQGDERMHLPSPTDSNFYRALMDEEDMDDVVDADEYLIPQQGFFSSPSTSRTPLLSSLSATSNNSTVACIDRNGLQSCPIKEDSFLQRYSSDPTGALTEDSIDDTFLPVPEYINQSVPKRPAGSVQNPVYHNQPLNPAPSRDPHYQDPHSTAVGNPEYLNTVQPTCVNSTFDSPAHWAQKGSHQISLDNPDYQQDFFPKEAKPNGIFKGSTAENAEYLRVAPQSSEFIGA
Description: (§1) a) Protein Tyrosine Kinase phosphorylation Assays
(§2) This test measures the ability of a test compound to inhibit the phosphorylation of a tyrosine containing polypeptide substrate by EGFR, erbB2 and erbB4 tyrosine kinase enzyme.
(§3) Recombinant intracellular fragments of EGFR, erbB2 and erbB4 (accession numbers X00588, X03363 and L07868 respectively) were cloned and expressed in the baculovinis/Sf21 system. […]
(§4) Constitutive kinase activity of these recombinant proteins was determined by their ability to phosphorylate a synthetic peptide (made up of a random co-polymer of Glutamic Acid, Alanine and Tyrosine in the ratio of 6:3:1). […]
(§5) The immobilised phospho-peptide product of the reaction was detected by immunological methods. […] After further washing, HRP activity in each well of the plate was measured colorimetrically using 22′-Azino-di-[3-ethylbenzthiazoline sulfonate (6)]diammonium salt crystals (ABTS™ from Roche) as a substrate.
(§6) Quantification of colour development and thus enzyme activity was achieved by the measurement of absorbance at 405 nm on a Molecular Devices ThermoMax microplate reader. Kinase inhibition for a given compound was expressed as an IC50 value. […] The range of phosphorylation was calculated from the positive (vehicle plus ATP) and negative (vehicle minus ATP) control values.

[2] = test system: BT474C cells; assay: Test (e) BT474C cell proliferation assay; type: cell-based; conditions: Homo sapiens, 96 h, four-day MTS assay, read-out: IC50 Test (e): Inhibition of proliferation of BT474C cells
Source text: The BT-474 tumour cell line (human mammary carcinoma) was obtained from Dr Baselga (at Laboratorio Recerca Oncologica, Paseo Vall D'Hebron 119-129, Barcelona 08035, Spain). This cell line was subcloned and a certain population (hereinafter referred to as “BT474C”) was obtained.
e) BT474C Cell Proliferation Assay
BT474C cells are a sub-cloned population of in vivo competent cells, as discussed above.
The BT474C assay is a MTS (3-(4,5-dimethylthiazol-2-yl)-5-(3-carboxymethoxyphenyl)-2-(4-sulfophenyl)-2H-tetrazolium, inner salt—Promega G1111) endpoint-based cell proliferation assay, which measures the ability of a test compound to inhibit the proliferation of cells over a four-day period. […] Cell density is measured using a haemocytometer and viability is calculated using Trypan Blue solution before being further diluted in Assay Medium and seeded at a density of 1×10^4 cells per well (in 100 μl) into clear bottomed 96 well plates (Costar 3598). […] The plate is read at 490 nm on a spectrophotometer.
Assay plates are left at 37° C. for 4 days and then treated with MTS solution (as above), which is converted to a soluble formazan product by active cells. After incubating the plates for 2 hours the reaction is stopped by the addition of 10% SDS (Sodium dodecyl sulphate) and the plates are read at 490 nm on a spectrophotometer giving absorbance values relative to the concentration of converted dye. […]

[3] = target: T2, erbB2 tyrosine kinase (Homo sapiens, UniProt P04626); assay: Test (a) protein tyrosine kinase phosphorylation assay, erbB2; type: biochemical; conditions: read-out: IC50 Test (a): Inhibition of erbB2 tyrosine kinase protein phosphorylation
T2 construct: Recombinant intracellular fragments of EGFR, erbB2 and erbB4; made in house; host or cells: baculovirus/Sf21 insect cells (cleared lysate used)
T2 sequence (P04626 676-1255 limits assumed): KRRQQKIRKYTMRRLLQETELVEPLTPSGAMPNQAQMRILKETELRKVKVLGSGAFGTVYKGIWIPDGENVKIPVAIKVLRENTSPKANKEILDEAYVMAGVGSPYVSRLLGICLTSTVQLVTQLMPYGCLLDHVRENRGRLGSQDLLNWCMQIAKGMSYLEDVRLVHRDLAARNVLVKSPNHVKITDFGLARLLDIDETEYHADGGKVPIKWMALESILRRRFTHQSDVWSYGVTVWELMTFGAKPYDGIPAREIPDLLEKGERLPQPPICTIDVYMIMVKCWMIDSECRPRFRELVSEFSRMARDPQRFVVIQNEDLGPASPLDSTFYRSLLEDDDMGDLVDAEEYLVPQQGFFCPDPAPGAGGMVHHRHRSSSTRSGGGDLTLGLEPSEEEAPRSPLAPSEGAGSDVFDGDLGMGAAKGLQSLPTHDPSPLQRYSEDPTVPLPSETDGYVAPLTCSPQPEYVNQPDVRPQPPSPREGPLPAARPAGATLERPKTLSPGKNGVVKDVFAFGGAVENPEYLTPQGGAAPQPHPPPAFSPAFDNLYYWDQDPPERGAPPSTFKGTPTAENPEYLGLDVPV
Description: as §1, §2, §3, §4, §5, §6

| IC50 [1] [nM] | IC50 [2] [nM] | IC50 [3] [nM] | SMILES |
| --- | --- | --- | --- |
| 362 | 337 | 8 | C[C@@H](Oc1cccc2ncnc(Nc3ccc(OCC4CCCO4)c(Cl)c3)c12)C(=O)N1CCOCC1 (stereo partly drawn) [Example 2, N-[3-chloro-4-(tetrahydrofuran-2-ylmethoxy)phenyl]-5-[(1R)-1-methyl-2-morpholin-4-yl-2-oxoethoxy]quinazolin-4-amine] |
| 169 | 418 | 3 | CSCCCOc1ccc(Nc2ncnc3cccc(O[C@H](C)C(=O)N4CCOCC4)c23)cc1Cl [Example 3, N-{3-chloro-4-[3-(methylthio)propoxy]phenyl}-5-[(1R)-1-methyl-2-morpholin-4-yl-2-oxoethoxy]quinazolin-4-amine] |
